Laboratory results taken from ChEMBL document CHEMBL1154119, “Rational design, synthesis and characterization of potent, non-peptidic Smac mimics/XIAP inhibitors as proapoptotic agents for cancer therapy” (Bioorg Med Chem, 2009).
pIC50: −log10 of the molar value.

Experiments:
HL-60 = test: Cytotoxicity against human HL60 cells after 96 hrs by MTT assay; settings: HL-60, 96 h
PC-3 = test: Cytotoxicity against human PC3 cells after 96 hrs by MTT assay; settings: PC-3, 96 h
[1] = Metabolic stability of compound in phosphate buffer in presence of human CYP3A4 and NADPH; format: ADME
MDA-MB-231 = test: cells; settings: Homo sapiens, MDA-MB-231, 96 h
Description: Cytotoxicity against human MDA-MB-231 cells after 96 hrs by MTT assay

[2] = molecular target: T1, E3 ubiquitin-protein ligase XIAP (Homo sapiens, UniProt P98170)
T1 sequence (P98170 whole entry): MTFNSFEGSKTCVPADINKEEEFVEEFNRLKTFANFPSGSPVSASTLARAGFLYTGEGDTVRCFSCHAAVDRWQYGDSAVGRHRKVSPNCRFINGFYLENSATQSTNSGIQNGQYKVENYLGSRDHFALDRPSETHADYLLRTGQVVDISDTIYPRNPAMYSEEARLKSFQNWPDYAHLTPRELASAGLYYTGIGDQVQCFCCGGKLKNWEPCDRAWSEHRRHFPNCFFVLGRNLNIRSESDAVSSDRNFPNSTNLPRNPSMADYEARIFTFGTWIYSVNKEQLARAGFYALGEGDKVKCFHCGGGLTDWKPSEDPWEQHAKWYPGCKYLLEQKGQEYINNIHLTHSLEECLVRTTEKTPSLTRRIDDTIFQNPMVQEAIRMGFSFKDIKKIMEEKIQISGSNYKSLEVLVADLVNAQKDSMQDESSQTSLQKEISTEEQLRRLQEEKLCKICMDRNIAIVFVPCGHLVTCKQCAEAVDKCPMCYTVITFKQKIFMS
Description: Binding affinity to human recombinant XIAP linker BIR2-BIR3 expressed in Escherichia coli BL21 by fluorescence polarization assay

[3] = Solubility at pH 7.4; format: physicochemical; settings: buffer
[4] = Solubility at pH 3; format: physicochemical; settings: buffer
[5] = molecular target: T1, E3 ubiquitin-protein ligase XIAP; remark: listed apart in the source
Description: Binding affinity to human recombinant XIAP BIR3 domain expressed in Escherichia coli BL21 by fluorescence polarization assay

Stability [1] [%]	pIC50 (MDA-MB-231)	pIC50 [2]	solubility [3]	solubility [4]	pIC50 [5]	Compound	pIC50 (HL-60)	pIC50 (PC-3)
83	6.84	–	–	–	–	CC[C@H](NC)C(=O)N[C@H]1CCC[C@H]2CC[C@@H](C(=O)NC(c3ccccc3)c3ccccc3)N2C1=O	4.69	4.24
87	< 4.00	–	–	–	–	CC[C@H](N)C(=O)N[C@H]1CCC[C@H]2CC[C@@H](C(=O)NC(c3ccccc3)c3ccccc3)N2C1=O	4.61	< 4.00
86	[…]	–	–	–	–	CC[C@H](NC)C(=O)N[C@@H]1C(=O)N2[C@@H](CC[C@@H]1CO)CC[C@H]2C(=O)NC(c1ccccc1)c1ccccc1	4.58	< 4.00
78	6.27	–	–	–	–	CC[C@H](NC)C(=O)N[C@@H]1C(=O)N2[C@@H](CC[C@@H]1CN)CC[C@H]2C(=O)NC(c1ccccc1)c1ccccc1	4.29	4.29
79	5.99	–	–	–	–	CC[C@H](N)C(=O)N[C@@H]1C(=O)N2[C@@H](CC[C@@H]1CO)CC[C@H]2C(=O)NC(c1ccccc1)c1ccccc1	5.19	< 4.00
90	5.89	–	–	–	–	CCNCC[C@H]1CC[C@H]2CC[C@@H](C(=O)NC(c3ccccc3)c3ccccc3)N2C(=O)[C@H]1NC(=O)[C@H](CC)NC	4.12	< 4.00
75	4.89	7.07	–	–	–	CC[C@H](N)C(=O)N[C@@H]1C(=O)N2[C@@H](CC[C@@H]1CCN)CC[C@H]2C(=O)NC(c1ccccc1)c1ccccc1	4.60	4.07
86	5.64	–	–	–	–	CC[C@H](NC)C(=O)N[C@@H]1C(=O)N2[C@@H](CC[C@@H]1CCN)CC[C@H]2C(=O)NC(c1ccccc1)c1ccccc1	4.51	< 4.00
65	6.03	–	–	–	–	CC[C@H](N)C(=O)N[C@@H]1C(=O)N2[C@@H](CC[C@@H]1CCNC(=O)c1ccccc1)CC[C@H]2C(=O)NC(c1ccccc1)c1ccccc1	4.29	< 4.00
43	6.68	–	–	–	–	CC[C@H](NC)C(=O)N[C@@H]1C(=O)N2[C@@H](CC[C@@H]1CCNC(=O)c1ccccc1)CC[C@H]2C(=O)NC(c1ccccc1)c1ccccc1	4.49	< 4.00
65	4.97	–	–	–	–	CC[C@H](N)C(=O)N[C@@H]1C(=O)N2[C@@H](CC[C@@H]1CCNC(=O)NCc1ccccc1)CC[C@H]2C(=O)NC(c1ccccc1)c1ccccc1	4.08	< 4.00
81	6.85	7.57	Soluble	Soluble	6.96	CC[C@H](NC)C(=O)N[C@@H]1C(=O)N2[C@@H](CC[C@@H]1CCNCc1ccccc1)CC[C@H]2C(=O)NC(c1ccccc1)c1ccccc1	5.28	5.11
51	5.92	–	–	–	–	CC[C@H](NC)C(=O)N[C@@H]1C(=O)N2[C@@H](CC[C@@H]1CCNC(=O)NCc1ccccc1)CC[C@H]2C(=O)NC(c1ccccc1)c1ccccc1	4.28	4.08
–	6.40	–	–	–	–	CC[C@H](N)C(=O)N[C@@H]1C(=O)N2[C@@H](CC[C@@H]1CCNCc1ccccc1)CC[C@H]2C(=O)NC(c1ccccc1)c1ccccc1	4.81	4.41
–	5.74	–	–	–	–	CC[C@H](N)C(=O)N[C@@H]1C(=O)N2[C@@H](CC[C@@H]1CCO)CC[C@H]2C(=O)NC(c1ccccc1)c1ccccc1	< 4.00	< 4.00
–	6.76	–	–	–	–	CC[C@H](NC)C(=O)N[C@@H]1C(=O)N2[C@@H](CC[C@@H]1CCO)CC[C@H]2C(=O)NC(c1ccccc1)c1ccccc1	4.13	< 4.00
93	5.22	–	–	–	–	CC[C@H](N)C(=O)N[C@@H]1C(=O)N2[C@@H](CC[C@@H]1CN)CC[C@H]2C(=O)NC(c1ccccc1)c1ccccc1	4.16	< 4.00
81	6.54	–	–	–	–	CCNC[C@H]1CC[C@H]2CC[C@@H](C(=O)NC(c3ccccc3)c3ccccc3)N2C(=O)[C@H]1NC(=O)[C@@H](N)CC	4.08	< 4.00
–	5.10	–	–	–	–	CCNCC[C@H]1CC[C@H]2CC[C@@H](C(=O)NC(c3ccccc3)c3ccccc3)N2C(=O)[C@H]1NC(=O)[C@@H](N)CC	4.20	< 4.00
73	5.47	–	–	–	–	CC[C@H](N)C(=O)N[C@@H]1C(=O)N2[C@@H](CC[C@@H]1CNC(=O)NCc1ccccc1)CC[C@H]2C(=O)NC(c1ccccc1)c1ccccc1	4.29	< 4.00
81	–	–	–	–	–	CC[C@H](N)C(=O)N[C@@H]1C(=O)N2[C@@H](CC[C@@H]1CNC(=O)c1ccccc1)CC[C@H]2C(=O)NC(c1ccccc1)c1ccccc1	4.44	4.10
–	7.00	–	–	–	–	CC[C@H](N)C(=O)N[C@@H]1C(=O)N2[C@@H](CC[C@@H]1CNCc1ccccc1)CC[C@H]2C(=O)NC(c1ccccc1)c1ccccc1	4.88	4.62
